Like-named read-outs stand apart in the source and are kept apart here.
Experiments:
Assay type in all cases: cell-based
[1] = system: prostate cancer (5 cell lines); assay: CellTiter-Glo Viability Assay, prostate cancer; conditions: Homo sapiens
[2] = system: all 50 cell lines; assay: CellTiter-Glo Viability Assay, average across all cell lines; conditions: Homo sapiens; across all 50 cell lines; read-out: average EC50 for inhibition of cancer cell proliferation
Summary of the method: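 4-day proliferation, 37° C/5% CO2; 300-3,000 cells/well; compound in duplicate vs DMSO controls. Panel: breast, colorectal, heme/lymphoid, liver, lung, ovarian, pancreatic, prostate lines. Read-out: CellTiter-Glo ATP luminescence, EC50 from dose-response.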

[3] = system: ovarian cancer (4 cell lines); assay: CellTiter-Glo Viability Assay, ovarian cancer; conditions: Homo sapiens, inhibition of cancer cell proliferation
[4] = system: lung cancer (4 cell lines); assay: CellTiter-Glo Viability Assay, lung cancer; conditions: Homo sapiens, inhibition of cancer cell proliferation
[5] = system: haematopoietic & lymphoid tumors (13 cell lines); assay: CellTiter-Glo Viability Assay, haematopoietic & lymphoid tumors; conditions: Homo sapiens, inhibition of cancer cell proliferation
[6] = system: colorectal cancer (6 cell lines); assay: CellTiter-Glo Viability Assay, colorectal cancer; conditions: Homo sapiens, inhibition of cancer cell proliferation
[7] = system: liver cancer (3 cell lines); assay: CellTiter-Glo Viability Assay, liver cancer; conditions: Homo sapiens, inhibition of cancer cell proliferation
[8] = system: pancreatic cancer (8 cell lines); assay: CellTiter-Glo Viability Assay, pancreatic cancer; conditions: Homo sapiens, inhibition of cancer cell proliferation
[9] = system: T47D; assay: CellTiter-Glo Viability Assay, breast cancer; conditions: Homo sapiens, 96 h, breast cancer, four days, read-out: EC50
[10] = system: DU4475; assay: CellTiter-Glo Viability Assay, breast cancer; conditions: Homo sapiens, DU-4475, 96 h; DU4475, breast cancer, four days; read-out: EC50
[11] = system: CAMA1; assay: CellTiter-Glo Viability Assay, breast cancer; conditions: Homo sapiens, CAMA-1, 96 h; CAMA1, breast cancer, four days; read-out: EC50
[12] = system: MCF7; assay: CellTiter-Glo Viability Assay, breast cancer; conditions: Homo sapiens, 96 h; MCF7, breast cancer, four days; read-out: EC50
[13] = system: HCC1599; assay: CellTiter-Glo Viability Assay, breast cancer; conditions: Homo sapiens, 96 h; HCC1599, breast cancer, four days; read-out: EC50
[14] = system: ZR-75-1; assay: CellTiter-Glo Viability Assay, breast cancer; conditions: Homo sapiens, 96 h; ZR-75-1, breast cancer, four days; read-out: EC50
[15] = system: MDA-MB-231-Luc; assay: CellTiter-Glo Viability Assay, breast cancer; conditions: Homo sapiens, 96 h; MDA-MB-231-Luc, breast cancer, four days; read-out: EC50
[16] = system: BT-549; assay: CellTiter-Glo Viability Assay, breast cancer; conditions: Homo sapiens, 96 h; BT-549, breast cancer, four days; read-out: EC50

O=C(Nc1ccc(OCCN2CCCC2)cc1)c1n[nH]cc1/C=C/c1cccnc1 [Compound 92]
EC50 ([1]; DU-145, read-out: Prostate cancer EC50 Du-145): > 10 µM
EC50 ([1]; PC-3, PC3 cell line, inhibition of cancer cell proliferation, read-out: Prostate cancer EC50 PC3): > 10 µM
EC50 ([1]; 22Rv1 cell line, inhibition of cancer cell proliferation, read-out: Prostate cancer EC50 22Rv1): 0.867 µM
EC50 ([1]; LNCap clone FGC cell line, inhibition of cancer cell proliferation, read-out: Prostate cancer EC50 LNCap clone FGC): 9.15 µM
EC50 ([1]; VCaP (Sigma) cell line, inhibition of cancer cell proliferation, read-out: Prostate cancer EC50 VCaP (Sigma)): 5.58 µM
EC50 [2]: 6.83 µM
EC50 ([3]; PA-1, PA1 cell line, read-out: Ovarian cancer, EC50 (μM) PA1): 9.92 µM
EC50 ([3]; TOV112D, TOV-112D cell line, read-out: Ovarian cancer, EC50 (μM) TOV-112D): 7.05 µM
EC50 ([3]; OV-90 cell line, read-out: Ovarian cancer, EC50 (μM) OV-90): > 10 µM
EC50 ([3]; OVCAR-3 cell line, read-out: Ovarian cancer, EC50 (μM) OVCAR-3): 8.42 µM
EC50 ([4]; A-427, A427 cell line, read-out: Lung cancer, EC50 (μM) A427): 8.56 µM
EC50 ([4]; HCC78, HCC-78 cell line, read-out: Lung cancer, EC50 (μM) HCC-78): > 10 µM
EC50 ([4]; NCI-H460 cell line, read-out: Lung cancer, EC50 (μM) NCI-H460): > 10 µM
EC50 ([4]; NCI-H522 cell line, read-out: Lung cancer, EC50 (μM) NCI-H522): 7.15 µM
EC50 ([5]; DND41, DND-41 cell line, read-out: Haematopoietic & Lymphoid tumors, EC50 (μM) DND-41): > 10 µM
EC50 ([5]; MV4-11, MV-4-11 cell line, read-out: Haematopoietic & Lymphoid tumors, EC50 (μM) MV-4-11): 0.675 µM
EC50 ([5]; Rec1, REC-1 cell line, read-out: Haematopoietic & Lymphoid tumors, EC50 (μM) REC-1): 2.25 µM
EC50 ([5]; SU-DHL-4, SUDHL4 cell line, read-out: Haematopoietic & Lymphoid tumors, EC50 (μM) SUDHL4): 4.87 µM
EC50 ([5]; HL-60 cell line, read-out: Haematopoietic & Lymphoid tumors, EC50 (μM) HL-60): 7.97 µM
EC50 ([5]; JM1 cell line, read-out: Haematopoietic & Lymphoid tumors, EC50 (μM) JM1): 3.24 µM
EC50 ([5]; JURKAT, Clone E6-1 cell line, read-out: Haematopoietic & Lymphoid tumors, EC50 (μM) JURKAT, Clone E6-1): 3.81 µM
EC50 ([5]; JeKo-1 cell line, read-out: Haematopoietic & Lymphoid tumors, EC50 (μM) JeKo-1): 2.18 µM
EC50 ([5]; KASUMI-1 cell line, read-out: Haematopoietic & Lymphoid tumors, EC50 (μM) KASUMI-1): 1.63 µM
EC50 ([5]; Loucy cell line, read-out: Haematopoietic & Lymphoid tumors, EC50 (μM) Loucy): 3.96 µM
EC50 ([5]; MOLT-4 cell line, read-out: Haematopoietic & Lymphoid tumors, EC50 (μM) MOLT-4): 6.76 µM
EC50 ([5]; TF-1 cell line, read-out: Haematopoietic & Lymphoid tumors, EC50 (μM) TF-1): 6.97 µM
EC50 ([5]; TOLEDO cell line, read-out: Haematopoietic & Lymphoid tumors, EC50 (μM) TOLEDO): 2.51 µM
EC50 ([6]; HCT-116, HCT116 cell line, read-out: Colorectal cancer, EC50 (μM) HCT116): 6.22 µM
EC50 ([6]; HT-29, HT29 cell line, read-out: Colorectal cancer, EC50 (μM) HT29): > 10 µM
EC50 ([6]; SW-620, SW620 cell line, read-out: Colorectal cancer, EC50 (μM) SW620): 5.35 µM
EC50 ([6]; DLD-1 cell line, read-out: Colorectal cancer, EC50 (μM) DLD-1): 2.53 µM
EC50 ([6]; SW48 cell line, read-out: Colorectal cancer, EC50 (μM) SW48): 1.87 µM
EC50 ([6]; SW480 cell line, read-out: Colorectal cancer, EC50 (μM) SW480): > 10 µM
EC50 ([7]; SNU-398, SNU398 cell line, read-out: Liver cancer, EC50 SNU398): 4.92 µM
EC50 ([7]; HEPG2 cell line, read-out: Liver cancer, EC50 HEPG2): > 10 µM
EC50 ([7]; PLC/PRF/5 cell line, read-out: Liver cancer, EC50 PLC/PRF/5): > 10 µM
EC50 ([8]; BXPC-3, BxPC3 cell line, read-out: Pancreatic cancer, EC50 BxPC3): > 10 µM
EC50 ([8]; CAPAN-1, Capan1 cell line, read-out: Pancreatic cancer, EC50 Capan1): > 10 µM
EC50 ([8]; Capan-2, Capan2 cell line, read-out: Pancreatic cancer, EC50 Capan2): > 10 µM
EC50 ([8]; MIA PaCa-2 cell line, read-out: Pancreatic cancer, EC50 MIA PaCa-2): 5.86 µM
EC50 ([8]; PANC 05.04 cell line, read-out: Pancreatic cancer, EC50 PANC 05.04): > 10 µM
EC50 ([8]; PANC-1 cell line, read-out: Pancreatic cancer, EC50 PANC-1): > 10 µM
EC50 ([8]; UPAFII cell line, read-out: Pancreatic cancer, EC50 UPAFII): > 10 µM
EC50 [9]: 0.867 µM
EC50 [10]: 6.04 µM
EC50 [11]: 8.71 µM
EC50 [12]: > 10 µM
EC50 [13]: 0.312 µM
EC50 [14]: > 10 µM
EC50 [15]: > 10 µM
EC50 [16]: 5.51 µM

— patent US20220062240A1, “METHODS OF TREATING CANCER USING A CLK INHIBITOR” (BioSplice Therapeutics, Inc., priority 2018, published 2022)
